This is an account of results in ChEMBL document CHEMBL1201862, “PubChem BioAssay data set” (2004).

Each structure is given as a SMILES string.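 In this assay, cells in 96-well plates receive the compound at five concentrations for 48 hours. Endpoints are linearly interpolated between the surrounding concentrations. Here, GI50 denotes the concentration required for 50% inhibition of growth.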 Active and inactive are the calls of the source. No stated cut-off is given here; in the data, active = GI50 up to about 1.1 µM and inactive = higher. Where only a bound is given, the exact number is not on record here.

Some test systems named below: Hs-578T; EKVX; NCI-H23; OVCAR-4; UACC-257; NCI/ADR-RES; SW-620; DLD-1; HCT-15; A498; COLO 205; K562; SNB-19; SF-295; SR; DU-145; OVCAR-5; CAKI-1; A549; M19-MEL.
Holding throughout (test): NCI-60 cell line screen, 48 h

Take `CCC1(OC(=O)CNC)C(=O)OCc2c1cc1n(c2=O)Cc2cc3ccccc3nc2-1` (stereo not given): the GI50 was 0.403 µM (active) in the test on Hs-578T; 0.127 µM (active) in the test with EKVX; < 0.01 µM (active) with NCI-H23; 0.0977 µM (active) with OVCAR-4; 0.0393 µM (active) with UACC-257; < 0.01 µM (active) with NCI/ADR-RES. Also, the GI50 with SW-620 is < 0.01 µM (active); with DLD-1, 0.294 µM (active); in the test on HCT-15 it was 0.0942 µM; in the test with A498, < 0.0179 µM (active); in the test with COLO 205 it was 0.148 µM (active); in the test on K562, 0.0303 µM (active). In addition, the GI50 was < 0.01 µM (active) in the test on SNB-19; < 0.01 µM (active) with SF-295; < 0.01 µM (active) with SR; < 0.01 µM (active) with DU-145; 0.0247 µM (active) in the test with OVCAR-5; < 0.01 µM (active) in the test on CAKI-1. In addition, the GI50 in the test with A549 is < 0.01 µM (active).

`CCCCCCCc1cc(OC(=O)c2c(C)cc(OC)cc2O)cc(O)c1C(=O)O`: the GI50 with EKVX was 25.2 µM (inactive); in the test on NCI-H23, 20.3 µM (inactive); in the test on OVCAR-4 it was 28.1 µM (inactive); in the test with UACC-257, 30.4 µM (inactive); in the test with M19-MEL it was 23.6 µM (inactive); with SW-620, 26.2 µM (inactive). Also, the GI50 with DLD-1 was 19.8 µM (inactive); with A498, 19.1 µM (inactive); in the test on COLO 205 it was 20.7 µM (inactive); in the test with K562, 33.9 µM (inactive); in the test with SNB-19 it was 26.4 µM (inactive); in the test with SF-295 it was 19.3 µM (inactive). Moreover, the GI50 in the test on OVCAR-5 is 16.6 µM (inactive); in the test on CAKI-1, 22.5 µM (inactive); in the test on A549 it was 29.9 µM (inactive).

As to `COc1ccc(C2=C3c4cc(OC)c(OC)cc4CCN3C(=S)SS2)cc1OC`, the GI50 in the test on EKVX is > 100 µM (inactive); in the test on NCI-H23, 50.7 µM (inactive); with OVCAR-4, 48.4 µM (inactive); in the test with UACC-257, 72.4 µM (inactive); in the test on M19-MEL, 53.2 µM (inactive); in the test with SW-620 it was 95.9 µM (inactive). Moreover, the GI50 in the test with DLD-1 was 33.7 µM (inactive); with HCT-15, 77.6 µM; in the test on A498 it was 46.6 µM (inactive); in the test on COLO 205, > 100 µM (inactive); in the test with K562 it was 71 µM (inactive); in the test on SNB-19 it was 69 µM (inactive). Besides, the GI50 was > 100 µM (inactive) in the test on SF-295, > 100 µM (inactive) with OVCAR-5, 77.6 µM (inactive) with CAKI-1 and > 100 µM (inactive) with A549.

Turning to `C/C(CN1C(=O)c2ccccc2C1=O)=N\NS(=O)(=O)c1ccc(F)cc1`, the GI50 in the test on EKVX, in the test on NCI-H23, in the test on OVCAR-4, in the test with UACC-257, with SW-620 and in the test with DLD-1 was > 100 µM (inactive) each time. Further, the GI50 in the test with HCT-15 was over 100 µM; with A498, > 100 µM (inactive); with COLO 205, > 100 µM (inactive); in the test on K562 it was > 100 µM (inactive); in the test with SNB-19, > 100 µM (inactive); in the test on SF-295, > 100 µM (inactive). The GI50 with SR, in the test on OVCAR-5, with CAKI-1 and with A549 was > 100 µM (inactive) in each case.

For the compound `Cc1c(CCl)c(=O)oc2c(C)c3occ(CCl)c(=O)c3cc12`, the GI50 with EKVX is > 100 µM (inactive); in the test on NCI-H23, 31.6 µM (inactive); in the test with UACC-257, > 100 µM (inactive); in the test on M19-MEL it was 16.2 µM (inactive); in the test on SW-620, > 100 µM (inactive); in the test on HCT-15, 25 µM. Also, the GI50 is > 100 µM (inactive) in the test with A498; 16 µM (inactive) in the test with COLO 205; 6.43 µM (inactive) in the test on K562; 25.8 µM (inactive) in the test on SNB-19; > 100 µM (inactive) in the test on SF-295; > 100 µM (inactive) in the test with OVCAR-5. Besides, the GI50 in the test on A549 was > 100 µM (inactive).

With `CN(C)CCn1c2ccccc2c2nc3cc4ccccc4cc3nc21`, the GI50 with EKVX is 12.6 µM (inactive); with NCI-H23, 8.91 µM (inactive); with OVCAR-4, 7.91 µM (inactive); in the test with M19-MEL, 8.73 µM (inactive); in the test on SW-620, 3.48 µM (inactive); in the test with DLD-1 it was 3.81 µM (inactive). Also, the GI50 with HCT-15 was 4.81 µM; in the test with A498, 2.34 µM (inactive); in the test on COLO 205, 1.87 µM (inactive); in the test with K562, 2.92 µM (inactive); with SNB-19, 13.5 µM (inactive); in the test with SF-295 it was 4.05 µM (inactive). Besides, the results for the GI50 in the test with CAKI-1 and with A549 were 4.91 µM (inactive) and 3.67 µM (inactive), respectively.

For `NC(C(=O)O)C(O)c1c[nH]cn1` (stereo not given), the GI50 with Hs-578T, with EKVX, in the test with NCI-H23, in the test with OVCAR-4, in the test on UACC-257 and in the test with NCI/ADR-RES was > 100 µM (inactive) throughout. For the same compound, the GI50 is > 100 µM (inactive) in the test on SW-620; over 100 µM with HCT-15; > 100 µM (inactive) with A498; > 100 µM (inactive) in the test on COLO 205; > 100 µM (inactive) in the test on K562; > 100 µM (inactive) with SNB-19. For the same compound, the GI50 with SF-295, in the test with SR, in the test with DU-145, in the test with OVCAR-5, in the test on CAKI-1 and in the test with A549 was > 100 µM (inactive) each time.

For the compound `O=C(NCCS(=O)(=O)N1C(=O)C2CCCN2C(=O)[C@@H]1Cc1ccccc1)OCc1ccccc1` (stereo not given in full), the GI50 with EKVX was 40.9 µM (inactive); in the test with NCI-H23, 67.6 µM (inactive); in the test with OVCAR-4 it was 36.7 µM (inactive); in the test with UACC-257 it was 48.2 µM (inactive); in the test on SW-620 it was 90.4 µM (inactive); with DLD-1, > 100 µM (inactive). For the same compound, the GI50 in the test on HCT-15 was 51.8 µM; with A498, 25.3 µM (inactive); in the test with COLO 205, 26.2 µM (inactive); with K562 it was 47.9 µM (inactive); in the test with SNB-19, 44.4 µM (inactive); in the test with SF-295, 50 µM (inactive). The GI50 in the test with SR is 57.1 µM (inactive); in the test with OVCAR-5, 70.3 µM (inactive); with CAKI-1, > 100 µM (inactive); with A549 it was 41.1 µM (inactive).

Consider `Cc1nc2c(o1)C(=O)c1ccccc1/C2=N/c1ccc(N2CCOCC2)cc1`, for which the GI50 in the test with Hs-578T is 3.22 µM (inactive); in the test on EKVX it was 7.73 µM (inactive); in the test on NCI-H23 it was 2.39 µM (inactive); in the test with OVCAR-4, 2.99 µM (inactive); with UACC-257, 1.94 µM (inactive); in the test with NCI/ADR-RES, 2.88 µM (inactive). Also, the GI50 in the test with SW-620 is 3.89 µM (inactive); in the test with HCT-15, 3.66 µM; in the test on A498, 18.7 µM (inactive); in the test on COLO 205 it was 23.7 µM (inactive); with K562, 3.28 µM (inactive); with SNB-19, 8.47 µM (inactive). In addition, the GI50 in the test with SF-295 was 2.52 µM (inactive); in the test with SR, 3.86 µM (inactive); with DU-145 it was 3.31 µM (inactive); with OVCAR-5, 18.2 µM (inactive); in the test with CAKI-1 it was 13.2 µM (inactive); in the test on A549, 6.19 µM (inactive).
